Residue numbers refer to the chain shown, from its start.
Columns and labels:
Assay in all cases: Saturation binding of ^125I-HEAT
[1] = target: T1, human α1A-AR S188A/S192A (SS-AA) variant (Homo sapiens, UniProt P35348, S188A/S192A)
T1 construct: expressed in transfected cells; host or cells: COS-7, transient (calcium phosphate)
T1 sequence (P35348 1-466 S188A/S192A): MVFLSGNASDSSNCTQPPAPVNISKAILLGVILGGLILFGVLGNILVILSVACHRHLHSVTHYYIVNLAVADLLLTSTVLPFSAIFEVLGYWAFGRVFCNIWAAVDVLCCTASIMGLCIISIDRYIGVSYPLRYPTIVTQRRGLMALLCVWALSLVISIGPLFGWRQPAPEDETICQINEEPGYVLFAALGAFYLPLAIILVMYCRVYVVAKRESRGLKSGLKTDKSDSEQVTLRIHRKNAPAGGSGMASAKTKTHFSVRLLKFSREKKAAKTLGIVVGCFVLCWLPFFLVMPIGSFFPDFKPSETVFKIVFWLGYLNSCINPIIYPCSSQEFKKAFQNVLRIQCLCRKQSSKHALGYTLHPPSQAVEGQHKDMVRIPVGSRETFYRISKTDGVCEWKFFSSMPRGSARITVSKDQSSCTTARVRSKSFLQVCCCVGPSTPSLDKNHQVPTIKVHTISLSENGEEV

[2] = target: T2, human α1A-AR F86A variant (Homo sapiens, UniProt P35348, F86A); conditions: F86A (2.64), n = 3–6
T2 construct: expressed in transfected cells; host or cells: COS-7, transient (calcium phosphate)
T2 sequence (P35348 1-466 F86A): T1 sequence (P35348 1-466 S188A/S192A) with F86A, A188S, A192S

[3] = target: T3, human α1A-AR F187A variant (Homo sapiens, UniProt P35348, F187A)
T3 construct: expressed in transfected cells; host or cells: COS-7, transient (calcium phosphate)
T3 sequence (P35348 1-466 F187A): T1 sequence (P35348 1-466 S188A/S192A) with F187A, A188S, A192S

With `O=C1c2ccccc2CCC1CNCCc1ccc(O)c([125I])c1` (centres unmarked) [125I-HEAT] the “^125I-HEAT Ratio (loss of affinity relative to WT)” value ([1]; SS-AA) was 0.78, the “^125I-HEAT pKd” value ([1]; SS-AA (5.42–5.46), saturation binding, n = 3–6) was 10.15±0.01 and the “^125I-HEAT pKd” value [2] was 8.68±0.09. The “^125I-HEAT Ratio (loss of affinity relative to WT)” value ([3]; F187A) was 0.22 ^* and the “^125I-HEAT pKd” value ([3]; F187A (5.41), saturation binding, n = 3–6) was 10.70±0.01.

— PMC3723878 (PLoS ONE, 2013)
